Like-named read-outs stand apart in the source and are kept apart here.
Key:
ACC1 = ACC1 (Homo sapiens (Human), UniProt Q13085); assay: ACC1 enzyme activity assay (ADP-Glo); format: biochemical; settings: ACC1 enzyme 2 nM working solution, room temperature
Protocol: (§1) Compound preparation: the compounds of the present disclosure prepared in the above examples and the control compound were respectively formulated into 10 mM with DMSO for use.
(§2) Preparation of 1× reaction buffer (pH=7.4): HEPES stock solutions (1 M), MgCl2 (1 M), BRIJ-35 (10%), potassium citrate buffer (1 M), BSA (10 mg/mL) and DTT (500 mM) were formulated to enzyme reaction buffer containing HEPES (50 mM), MgCl2 (2 mM), BRIJ-35 (0.01%), potassium citrate buffer (2 mM), BSA (50 Gg/mL) and DTT (2 mM).
4.5 μL of 2.2×ACC1 enzyme (2 nM) working solution was added to a 384-well plate; and then 0.5 μL of different concentrations of compound were added. The mixture was incubated at room temperature for 15 min.
(§3) Negative control group: menstruum containing 5% DMSO; positive control group: menstruum containing 100 nM ND-630. The average values of each concentration and the positive and negative controls were calculated, and the standard deviation was calculated. […] The inhibition rate data was fitted by nonlinear regression equation to calculate IC50 of each compound. The nonlinear regression equation was Y=lowest value+(highest value−lowest value)/(1+10^((Log IC50−X)×HillSlope)), among which X is logarithm of the compound concentration and Y is inhibition percent (%).

ACC2 = ACC2 (Homo sapiens (Human), UniProt O00763); assay: ACC2 enzyme activity assay (ADP-Glo); format: biochemical; settings: ACC2 enzyme 1.1 nM working solution, room temperature
Protocol: as §1, §2
The mixture was incubated at room temperature for 15 min.
as §3

[1] = Evaluation of compound distribution in rat liver; format: in vivo; settings: male SD rats, single oral 3 mg/kg, 0.25 h after administration
Protocol: An acclimation period of 2-3 days was given before the experiments. The rats were fasted for 8-12 h before administration, supplied with water 2 h after administration and foods 4 h after administration.
6 mg of the test compound (based on free base) was weighed and added to 20 mL of ethanol-PEG400-saline (10:30:60). The mixture was vortexed for 2 min, and sonicated for 3 min, and then used to prepare a solution of test sample solution with a concentration of 0.3 mg/mL for oral administration. 100 μL of the test sample solution was volumed to 10 ng/mL with methanol, and a control sample of the same concentration was prepared. The concentrations of the test sample and control sample were detected by HPLC, and the accuracy was calculated.
SD rats were given a single oral administration of 3 mg/kg of test compound at a dose of 10 mL/kg. The rats were bled in femoral artery and ruptured in neck 0.25 h after administration. The liver and blood samples (anticoagulation with heparin sodium) were collected immediately, and placed on ice.
The homogenate was centrifuged (centrifugation conditions: 8000 rpm/min, 5 min, 4° C.). The supernatant was transferred and subjected to cryopreservation. The supernatant was thawed and centrifuged before injection, and the supernatant was collected and subjected to LC-MS/MS for analyzing the content of the compound in the supernatant sample.
The collected whole blood sample was placed on ice and centrifuged within 30 min (centrifugation conditions: 8000 rpm/min, 5 min, 4° C.). 100 μL of the upper layer of plasma was transferred, and precipitated with 300 μL of methanol. The mixture was shaken and centrifuged, and diluted with mobile phase. The supernatant was collected and subjected to LC-MS/MS for analyzing the content of the compound in the supernatant sample.

[2] = system: Col1A1 gene expression in TGF-β1-induced LX-2 cells; assay: Inhibition of human hepatic stellate cells LX-2 activation in vitro (Col1A1 gene expression, real-time PCR); format: cell-based; settings: TGFβ1 10 ng/mL, 24 h drug treatment, compound concentration of the tabulated value not stated (30, 10, 3 μM prepared)
Protocol: The compounds of the present disclosure prepared in the above examples and the control compound were respectively formulated into 60 mM with DMSO for use.
DMSO stock solution of the compounds of the examples of the present disclosure and the control compound were sequentially diluted with culture medium to 30 μM, 10 μM, and 3 μM. TGF-β1 was dissolved to […] with 10 mM citric acid buffer in the kit (PeproTech) according to the instructions, ready for use.
LX-2 cells were inoculated into a 6-well culture plate at a density of 2×10^5 cells/mL after cell passage. Each well contained 2 mL DMEM with 10% FBS. The cells were cultured at 37° C. in a 5% CO2 incubator, which was recorded as Day 1. After 24 h (Day 2), the cell confluence reached 70-80%, the old culture medium was discarded, and the serum-free DMEM was used to treat the cells as low serum starvation. The old culture medium was discarded at Day 3, and the culture medium or the culture medium containing different concentrations of the drug was added for continuing culture. There were control group (serum-free DMEM culture medium), TGFβ1 group, TGFβ1+ compound group. The TGFβ1 working concentration was 10 ng/mL. 24 h after the drug treatment (Day 4), the cell medium was discarded and the cells were washed once with precooled 1×PBS and then subjected to total RNA extraction.
2.3.1 Sample pretreatment: 1 mL of TransZOL Up reagent was added to each well of the 6-well plate, and the well plate was placed horizontally for a while to let the lysis buffer evenly spread on the cell surface and lyse the cells. The cells were blown with a pipette to make the cells completely detached. The lysate was transferred to a 2 mL RNase free centrifuge tube and repeatedly blown and sucked until no significant pieces in the lysate.
The extracted RNA was diluted to a concentration of 0.1 μg-0.5 μg (Total RNA ≤1 μg) based on the same mass. The total RNA in the reverse transcription system of each sample in the experiment was about 500 ng.
Two replicates were set for each sample, and the relative expression of the target gene was calculated by the program in the PCR machine.
The threshold of the Real Time PCR result was automatically set by the Real Time PCR detector system. The relative expression of the Col1A1 gene was calculated as follows. ΔCt (Col1A1 in drug treatment group)=Avg. Ct (Col1A1 in drug treatment group)−Avg. Ct (GAPDH in drug treatment group) ΔCt (Col1A1 in TGF group)=Avg. Ct (Col1A1 in TGF group)−Avg. Ct (GAPDH in TGF group) ΔCt (Col1A1 in Control group)=Avg. Ct (Col1A1 in Control group)−Avg. Ct (GAPDH in Control group) ΔΔCt=Average value of ΔCt (Col1A1 in TGF group/drug treatment group)−ΔCt (Col1A1 in Control group)
Formula for calculating the relative expression of Col1A1 gene: RQ=^2−ΔΔCt
Relative quantification results were obtained by automatically analysis of ABI 7500 real-time quantitative PCR machine.

Sequence of ACC2 (O00763 whole entry): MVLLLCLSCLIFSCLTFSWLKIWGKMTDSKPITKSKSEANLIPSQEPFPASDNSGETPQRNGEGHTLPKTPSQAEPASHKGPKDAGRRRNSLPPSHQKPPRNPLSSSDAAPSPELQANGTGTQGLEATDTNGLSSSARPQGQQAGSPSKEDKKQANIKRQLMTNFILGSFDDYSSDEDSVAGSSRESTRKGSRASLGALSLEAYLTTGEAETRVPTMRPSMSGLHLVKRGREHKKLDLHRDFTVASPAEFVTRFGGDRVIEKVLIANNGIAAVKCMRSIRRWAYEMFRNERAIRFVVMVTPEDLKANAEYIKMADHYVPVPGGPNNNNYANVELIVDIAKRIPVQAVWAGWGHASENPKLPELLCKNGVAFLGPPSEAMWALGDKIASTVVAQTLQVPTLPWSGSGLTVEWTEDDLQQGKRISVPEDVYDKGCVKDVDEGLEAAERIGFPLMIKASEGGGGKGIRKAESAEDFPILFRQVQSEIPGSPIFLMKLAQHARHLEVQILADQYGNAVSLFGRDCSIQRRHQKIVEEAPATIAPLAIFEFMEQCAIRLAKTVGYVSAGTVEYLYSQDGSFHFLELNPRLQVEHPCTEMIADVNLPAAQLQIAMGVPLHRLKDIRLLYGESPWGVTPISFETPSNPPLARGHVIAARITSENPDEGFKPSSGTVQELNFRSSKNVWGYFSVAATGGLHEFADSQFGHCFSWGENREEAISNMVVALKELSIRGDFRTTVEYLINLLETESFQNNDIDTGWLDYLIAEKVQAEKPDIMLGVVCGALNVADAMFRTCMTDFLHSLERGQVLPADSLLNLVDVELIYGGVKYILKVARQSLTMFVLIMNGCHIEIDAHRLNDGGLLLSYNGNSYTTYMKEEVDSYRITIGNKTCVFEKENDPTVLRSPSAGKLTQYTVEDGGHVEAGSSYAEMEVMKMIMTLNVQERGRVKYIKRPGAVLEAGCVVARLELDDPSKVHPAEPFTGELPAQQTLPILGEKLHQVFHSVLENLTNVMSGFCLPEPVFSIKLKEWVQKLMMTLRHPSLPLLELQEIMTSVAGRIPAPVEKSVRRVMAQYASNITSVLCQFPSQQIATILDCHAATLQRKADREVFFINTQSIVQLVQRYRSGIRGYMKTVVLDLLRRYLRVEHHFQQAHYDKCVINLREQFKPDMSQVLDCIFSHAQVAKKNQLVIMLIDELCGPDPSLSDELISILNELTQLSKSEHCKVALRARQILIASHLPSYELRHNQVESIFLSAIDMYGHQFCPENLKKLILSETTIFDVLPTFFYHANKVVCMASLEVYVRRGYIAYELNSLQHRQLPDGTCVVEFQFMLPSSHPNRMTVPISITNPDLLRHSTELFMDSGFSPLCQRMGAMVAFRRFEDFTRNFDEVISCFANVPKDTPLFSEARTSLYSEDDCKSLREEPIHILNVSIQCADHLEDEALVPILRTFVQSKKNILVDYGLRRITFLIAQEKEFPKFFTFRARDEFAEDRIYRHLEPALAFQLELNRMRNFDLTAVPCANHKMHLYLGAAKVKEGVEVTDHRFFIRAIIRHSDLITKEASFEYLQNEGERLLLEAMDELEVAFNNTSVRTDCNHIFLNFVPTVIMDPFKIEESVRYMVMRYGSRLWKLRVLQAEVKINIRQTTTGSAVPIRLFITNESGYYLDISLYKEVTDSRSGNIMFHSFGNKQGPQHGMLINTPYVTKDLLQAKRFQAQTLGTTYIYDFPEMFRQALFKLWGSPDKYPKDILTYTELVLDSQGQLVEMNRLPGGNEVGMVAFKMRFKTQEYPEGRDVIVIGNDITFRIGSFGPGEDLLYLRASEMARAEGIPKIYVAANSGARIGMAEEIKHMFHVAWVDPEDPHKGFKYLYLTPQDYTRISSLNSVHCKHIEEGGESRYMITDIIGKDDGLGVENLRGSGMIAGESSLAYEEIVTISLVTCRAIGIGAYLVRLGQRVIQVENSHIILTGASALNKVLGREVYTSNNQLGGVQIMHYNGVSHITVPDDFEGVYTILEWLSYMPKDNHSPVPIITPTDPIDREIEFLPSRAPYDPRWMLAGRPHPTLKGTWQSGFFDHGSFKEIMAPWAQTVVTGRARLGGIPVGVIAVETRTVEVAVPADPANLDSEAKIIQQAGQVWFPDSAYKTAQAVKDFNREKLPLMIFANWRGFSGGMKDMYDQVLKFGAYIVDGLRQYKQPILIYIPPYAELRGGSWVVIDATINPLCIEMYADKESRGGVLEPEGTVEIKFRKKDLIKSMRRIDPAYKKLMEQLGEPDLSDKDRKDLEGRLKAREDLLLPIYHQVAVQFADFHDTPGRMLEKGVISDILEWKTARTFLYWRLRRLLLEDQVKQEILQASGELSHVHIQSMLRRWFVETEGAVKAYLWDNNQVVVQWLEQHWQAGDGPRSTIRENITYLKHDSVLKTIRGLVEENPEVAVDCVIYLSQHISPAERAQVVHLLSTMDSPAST

Work on `COc1ccccc1[C@H](Cn1c(=O)n(C(C)(C)C(=O)O)c(=O)c2c(C)c(-c3ncco3)sc21)OC1CCOCC1` [ND-630, 2-[1-[2-(2-methoxyphenyl)-2-(oxecyclo-4-yloxy)ethyl]-5-methyl-6-(1,3-oxazol-2-yl)-2,4-dioxo-1H,2H,3H,4H-thieno[2,3-d]pyrimidin-3-yl]-2-methylpropanoic acid, reference compound] yielded an IC50 (ACC1) of 0.5 nM, an IC50 (ACC2) of 3.56 nM and a concentration at 0.25 h ([1]; liver, read-out: Concentration in Liver) of 6070 ng/g. For the same compound, the Kp at 0.25 h ([1]; liver/plasma, read-out: Liver/plasma distribution ratio) was 41.8, the concentration at 0.25 h ([1]; plasma, read-out: Concentration in Plasma) was 145 ng/mL and the “Inhibition rate (%) of relative expression of the Col1A1 gene” value [2] was 42.06%.

— US11186587B2, “Compound as ACC inhibitor and use thereof” (NANJING SANHOME PHARMACEUTICAL CO., LTD., priority 2017, dated 2021)
